Patent US8530461B2 (Boehringer Ingelheim International GmbH, priority 2011, dated 2013)

Molecular target: T1, human ACC2 (Homo sapiens, UniProt O00763)
T1 construct: made in house; host or cells: insect cells (baculoviral expression system)
Experiment: ACC2 assay, spectrophotometric 384 well assay (NADH-linked, coupled lactate dehydrogenase/pyruvate kinase)
Assay type: biochemical
Conditions: ACC2 assay; human ACC2 construct lacking 128 N-terminal amino acids; 25° C., 340 nm, 15 minutes; read-out: IC50
Description: Spectrophotometric 384 Well Assay
Malonyl CoA formation by acetyl CoA carboxylases is stoichometrically linked to the consumption of ATP. ACC2 activity is measured in a NADH-linked kinetic method measuring ADP generated during the ACC reaction using a coupled lactate dehydrogenase/pyruvate kinase reaction.
For biological testing, a human ACC2 construct which lacks the 128 amino acids at the N-terminus for increased solubility (nt 385-6966 in Genbank entry AJ575592) is cloned. The protein is then expressed in insect cells using a baculoviral expression system. Protein purification is performed by anion exchange.
All compounds are dissolved in dimethyl sulfoxide (DMSO) to a concentration of 10 mM.
Assay reactions are then carried out in 384-well plates, with hACC2 in an appropriate dilution and at final assay concentrations (f.c.) of 100 mM Tris (pH 7.5), 10 mM trisodium citrate, 25 mM KHCO3, 10 mM MgCl2, 0.5 mg/ml BSA, 3.75 mM reduced L-glutathione, 15 U/ml lactate dehydrogenase, 0.5 mM phosphoenolpyruvate, 15 U/ml pyruvate kinase, compounds at different concentrations at final DMSO concentrations of 1%.
The enzymatic reaction is then started by addition of a mixture of NADH, acetyl Coenzyme A (both […].) and ATP (500 uM f.c.). The decrease of the optical density (slope S) is then determined at 25° C. at a wavelength of 340 nm over 15 minutes in a spectrophotometric reader.
Each assay microtiter plate contains wells with vehicle instead of compound as controls for the non-inhibited enzyme (100% CTL; ‘HIGH’) and wells without acetyl-CoA as controls for non-specific NADH degradation (0% CTL; ‘LOW’).
The slope S is used for calculation of % CTL=(S(compound)−S(‘LOW’))/(S(‘HIGH’)−S(‘LOW’))100. Compounds will give values between 100% CTL (no inhibition) and 0% CTL (complete inhibition).
For IC50 value determination, the sample slope in the presence of the test compound after subtraction of the low controls (S(compound)−S(‘LOW’)) are used.
An IC50 value is derived from the compound slopes at different dosages after subtraction of the low controls (S(compound)−S(‘LOW’)) by non-linear regression curve fitting (equation y=(A+((B−A)/(1+((C/x)^D))))).

T1 sequence (O00763 129-2458 limits assumed): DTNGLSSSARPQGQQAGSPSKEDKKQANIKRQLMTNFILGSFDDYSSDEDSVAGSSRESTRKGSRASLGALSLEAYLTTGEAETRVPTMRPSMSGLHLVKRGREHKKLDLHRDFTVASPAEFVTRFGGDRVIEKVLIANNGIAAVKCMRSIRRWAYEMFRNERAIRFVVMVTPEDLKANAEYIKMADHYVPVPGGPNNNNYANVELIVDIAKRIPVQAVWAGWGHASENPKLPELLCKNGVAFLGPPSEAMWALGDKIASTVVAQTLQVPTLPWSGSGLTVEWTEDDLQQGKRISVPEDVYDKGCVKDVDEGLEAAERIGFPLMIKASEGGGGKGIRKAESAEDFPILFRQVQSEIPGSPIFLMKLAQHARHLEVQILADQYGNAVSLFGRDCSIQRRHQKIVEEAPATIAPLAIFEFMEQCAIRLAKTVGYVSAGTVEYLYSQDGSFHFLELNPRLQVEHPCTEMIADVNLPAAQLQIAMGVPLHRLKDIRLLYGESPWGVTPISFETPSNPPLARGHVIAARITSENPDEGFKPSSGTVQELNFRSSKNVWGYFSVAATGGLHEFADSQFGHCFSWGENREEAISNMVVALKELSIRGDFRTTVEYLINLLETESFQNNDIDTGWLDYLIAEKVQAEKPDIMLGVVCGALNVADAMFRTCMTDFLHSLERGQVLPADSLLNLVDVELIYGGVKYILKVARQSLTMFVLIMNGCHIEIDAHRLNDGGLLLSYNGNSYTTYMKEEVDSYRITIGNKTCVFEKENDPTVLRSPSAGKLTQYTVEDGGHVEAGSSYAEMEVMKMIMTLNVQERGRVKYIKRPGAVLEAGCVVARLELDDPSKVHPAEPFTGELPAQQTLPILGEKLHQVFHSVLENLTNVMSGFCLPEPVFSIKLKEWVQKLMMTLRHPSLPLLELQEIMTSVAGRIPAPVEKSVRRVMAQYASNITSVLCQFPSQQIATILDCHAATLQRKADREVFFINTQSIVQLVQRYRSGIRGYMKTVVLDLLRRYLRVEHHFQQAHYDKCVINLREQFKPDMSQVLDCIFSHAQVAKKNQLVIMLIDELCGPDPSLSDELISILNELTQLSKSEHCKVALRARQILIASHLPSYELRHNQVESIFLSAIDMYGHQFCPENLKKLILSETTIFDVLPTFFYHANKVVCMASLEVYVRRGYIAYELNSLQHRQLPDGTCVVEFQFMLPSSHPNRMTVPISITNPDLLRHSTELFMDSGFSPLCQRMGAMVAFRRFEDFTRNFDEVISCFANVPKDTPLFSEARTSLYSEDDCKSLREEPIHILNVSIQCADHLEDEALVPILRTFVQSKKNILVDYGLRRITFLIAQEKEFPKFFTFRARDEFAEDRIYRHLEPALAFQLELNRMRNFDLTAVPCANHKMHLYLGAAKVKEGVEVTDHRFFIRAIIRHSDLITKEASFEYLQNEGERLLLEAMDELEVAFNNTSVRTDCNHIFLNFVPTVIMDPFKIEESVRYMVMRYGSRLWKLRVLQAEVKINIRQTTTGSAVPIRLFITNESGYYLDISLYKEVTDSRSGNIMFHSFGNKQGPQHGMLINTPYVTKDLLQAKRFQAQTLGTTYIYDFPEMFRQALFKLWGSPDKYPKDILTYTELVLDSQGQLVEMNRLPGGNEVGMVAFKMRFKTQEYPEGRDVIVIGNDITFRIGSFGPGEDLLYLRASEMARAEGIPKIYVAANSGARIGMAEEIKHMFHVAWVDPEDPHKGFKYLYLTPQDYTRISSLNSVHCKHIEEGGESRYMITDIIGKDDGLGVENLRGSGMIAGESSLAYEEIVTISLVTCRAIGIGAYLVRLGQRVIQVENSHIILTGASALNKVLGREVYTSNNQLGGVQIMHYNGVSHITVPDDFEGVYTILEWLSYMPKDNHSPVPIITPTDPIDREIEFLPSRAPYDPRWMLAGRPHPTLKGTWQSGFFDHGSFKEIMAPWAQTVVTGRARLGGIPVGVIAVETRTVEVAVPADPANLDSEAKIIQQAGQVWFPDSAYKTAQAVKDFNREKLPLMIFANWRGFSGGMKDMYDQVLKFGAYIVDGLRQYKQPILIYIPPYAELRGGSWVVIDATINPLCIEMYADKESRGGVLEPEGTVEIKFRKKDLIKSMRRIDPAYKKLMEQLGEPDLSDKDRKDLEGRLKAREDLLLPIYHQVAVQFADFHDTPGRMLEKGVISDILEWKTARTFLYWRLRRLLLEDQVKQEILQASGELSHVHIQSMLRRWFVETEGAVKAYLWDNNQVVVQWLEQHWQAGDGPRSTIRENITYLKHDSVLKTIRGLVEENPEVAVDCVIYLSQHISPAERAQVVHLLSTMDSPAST

| Structure (SMILES) | IC50 |
| --- | --- |
| CCOc1ccc(OC2CN(c3ccc([C@H](C)NC(=O)c4csc(NC(C)=O)n4)cc3)C2)cc1 [Example 1.44] | 0.61 µM |
| CCCOc1ccc(OC2CN(c3ccc([C@H](C)NC(C)=O)cc3)C2)cc1 [Example 9.3] | 0.05 µM |
| CC(=O)N[C@@H](C)c1ccc(N2CC(Oc3cccc(C(C)C)n3)C2)cc1 [Example 12.19] | 0.23 µM |
| CCCC(=O)N[C@@H](C)c1ccc(N2CC(Oc3ccc(OCC)cc3)C2)cc1 [Example 1.6] | 0.28 µM |
| CCOc1ccc(OC2CN(c3ccc([C@H](C)NC(=O)CC(F)(F)F)cc3)C2)cc1 [Example 1.75] | 0.41 µM |
| CCOc1ccc(OC2CN(c3ccc([C@H](C)NC(=O)N(C)c4cccnc4)cc3)C2)cc1 [Example 4.13] | 0.37 µM |
| CCOc1ccc(OC2CN(c3ccc([C@H](C)NC(=O)C4(C)CCC4)cc3)C2)cc1 [Example 1.1, (S)-1-Methyl-cyclobutanecarboxylic acid (1-{4-[3-(4-ethoxy-phenoxy)-azetidin-1-yl]-phenyl}-ethyl)-amide] | 2.59 µM |
| CCOc1ccc(OC2CN(c3ccc([C@H](C)NC(=O)C4CC4)cc3)C2)c(F)c1 [Example 7.2, (S)-Cyclopropanecarboxylic acid (1-{4-[3-(4-ethoxy-2-fluoro-phenoxy)-azetidin-1-yl]-phenyl}-ethyl)-amide] | 2.42 µM |
| CCOc1ccc(OC2CN(c3ccc([C@H](C)NC(=O)c4cnco4)cc3)C2)cc1 [Example 1.37] | 0.17 µM |
| COCCOc1ccc(OC2CN(c3ccc([C@H](C)NC(C)=O)cc3)C2)cc1 [Example 10.19] | 0.14 µM |
| CCNC(=O)N[C@@H](C)c1ccc(N2CC(Oc3ccc(OCC)cc3)C2)cc1 [Example 4.2] | 1.54 µM |
| CCOc1ccc(OC2CN(c3ccc([C@H](C)NC(=O)c4scnc4C)cc3)C2)cc1 [Example 1.38] | 0.78 µM |
| CCOc1ccc(OC2CN(c3ccc([C@H](C)NC(=O)C4CC(=O)N(C)C4)cc3)C2)cc1 (stereo partly drawn) [Example 1.46] | 1.73 µM |
| CC(=O)N[C@@H](C)c1ccc(N2CC(Oc3cccc(N(C)CC(C)(C)O)n3)C2)cc1 [Example 12.1, (S)—N-{1-[4-(3-{6-[(2-Hydroxy-2-methyl-propyl)-methyl-amino]-pyridin-2-yloxy}-azetidin-1-yl)-phenyl]ethyl}-acetamide] | 0.81 µM |
| CC(=O)N[C@@H](C)c1ccc(N2CC(Oc3ccnc(N4CCOCC4)n3)C2)cc1 [Example 13.1, (S)—N-(1-{4-[3-(2-Morpholin-4-yl-pyrimidin-4-yloxy)-azetidin-1-yl]-phenyl}-ethyl)-acetamide] | 0.35 µM |
| CCOc1ccc(OC2CN(c3ccc([C@H](C)NC(=O)Cc4cc[nH]c4)cc3)C2)cc1 [Example 1.49] | 1.47 µM |
| CCOc1c(F)cc(OC2CN(c3ccc([C@H](C)NC(C)=O)cc3)C2)cc1F [Example 10.31] | 0.3 µM |
| CC(=O)N[C@@H](C)c1ccc(N2CC(Oc3cccc(C4CCC4)n3)C2)cc1 [Example 12.14] | 0.22 µM |
| CCOc1ccc(OC2CN(c3ccc([C@H](C)NC(C)=O)cc3)C2)c(F)c1F [Example 10.7] | 0.2 µM |
| CCOc1ccc(OC2CN(c3ccc([C@H](C)NC(=O)c4ccon4)cc3)C2)cc1 [Example 1.36] | 1.61 µM |
| CC(=O)N[C@@H](C)c1ccc(N2CC(Oc3ccc(C)c(F)c3F)C2)cc1 [Example 10.1, (S)—N-(1-{4-[3-(2,3-Difluoro-4-methyl-phenoxy)-azetidin-1-yl]-phenyl}-ethyl)-acetamide] | 1.28 µM |
| CCOc1ccc(OC2CN(c3ccc([C@H](C)NC(=O)CO)cc3)C2)cc1 [Example 1.28] | 1.01 µM |
| CCOc1ccc(OC2CN(c3ccc([C@H](C)NC(=O)C(F)F)cc3)C2)cc1 [Example 1.73] | 0.16 µM |
| CCOc1ccc(OC2CN(c3ccc([C@H](C)NC(=O)Cn4ccnc4)cc3)C2)cc1 [Example 1.13] | 0.48 µM |

| Structure (SMILES) | IC50 |
| --- | --- |
| CCOc1ccc(OC2CN(c3ccc([C@H](C)NC(=O)Cn4cncn4)cc3)C2)cc1 [Example 1.61] | 1.44 µM |
| CCOc1ccc(OC2CN(c3ccc([C@H](C)NC(=O)CC4CC4)cc3)C2)cc1 [Example 1.15] | 2.56 µM |
| CCCCC(=O)N[C@@H](C)c1ccc(N2CC(Oc3ccc(OCC)cc3)C2)cc1 [Example 1.65] | 0.8 µM |
| C#CC(C)(C)C(=O)N[C@@H](C)c1ccc(N2CC(Oc3ccc(OCC)cc3)C2)cc1 [Example 1.63] | 0.93 µM |
| CC(=O)N[C@@H](C)c1ccc(N2CC(Oc3cccc(C)n3)C2)cc1 [Example 12.5] | 0.53 µM |
| CC(=O)N[C@@H](C)c1ccc(N2CC(Oc3ccc(OC(F)(F)F)cc3)C2)cc1 [Example 10.2] | 0.78 µM |
| CCC(C)c1ccc(OC2CN(c3ccc([C@H](C)NC(=O)C4CC4)cc3)C2)cc1 (stereo partly drawn) [Example 10.26] | 0.37 µM |
| CCOc1ccc(OC2CN(c3ccc([C@H](C)NC(=O)Cc4cc(C)no4)cc3)C2)cc1 [Example 1.54] | 0.54 µM |
| CC(=O)N[C@@H](C)c1ccc(N2CC(Oc3ccnc(OCC4CC4(F)F)c3)C2)cc1 (stereo partly drawn) [Example 11.5] | 0.1 µM |
| CCOc1ccc(OC2CN(c3ccc([C@H](C)NC(=O)c4cocn4)cc3)C2)cc1 [Example 1.20] | 0.33 µM |
| CCOc1ccc(OC2CN(c3ccc([C@H](C)NC4=CC(=O)OC4)cc3)C2)cc1 [Example 5.1, (S)-4-(1-{4-[3-(4-Ethoxy-phenoxy)-azetidin-1-yl]-phenyl}-ethylamino)-5H-furan-2-one] | 0.34 µM |
| CCOc1ccc(OC2CN(c3ccc([C@H](C)NC(=O)Cc4cccnc4)cc3)C2)cc1 [Example 1.52] | 0.97 µM |
| CCOc1ccc(OC2CN(c3ccc([C@H](C)NC(=O)c4cc(C)nn4C)cc3)C2)cc1 [Example 1.31] | 1.75 µM |
| CC(=O)N[C@@H](C)c1ccc(N2CC(Oc3ccnc(O[C@@H]4CCOC4)c3)C2)cc1 [Example 11.2] | 0.27 µM |
| CC(=O)N[C@@H](C)c1ccc(N2CC(Oc3ccnc(N4CCCC4)n3)C2)cc1 [Example 13.2, (S)—N-(1-{4-[3-(2-Pyrrolidin-1-yl-pyrimidin-4-yloxy)-azetidin-1-yl]-phenyl}-ethyl)-acetamide] | 0.06 µM |
| CCOc1ccc(OC2CN(c3ccc([C@H](C)NC(=O)CCCNC(C)=O)cc3)C2)cc1 [Example 1.55] | 0.44 µM |
| CCOc1ccc(OC2CN(c3ccc([C@H](C)NC(=O)C(C)(C)F)cc3)C2)cc1 [Example 1.17] | 0.28 µM |
| CCOCC(=O)N[C@@H](C)c1ccc(N2CC(Oc3ccc(OCC)cc3)C2)cc1 [Example 1.62] | 2.5 µM |
| CC(=O)N[C@@H](C)c1ccc(N2CC(Oc3ccc(OCc4ccccc4)cc3)C2)cc1 [Example 8.5, (S)—N-(1-{4-[3-(4-Benzyloxy-phenoxy)-azetidin-1-yl]-phenyl}-ethyl)-acetamide] | 0.14 µM |
| CCOc1ccc(OC2CN(c3ccc([C@H](C)NC(=O)Nc4cc[nH]n4)cc3)C2)cc1 [Example 4.7] | 2.31 µM |
| CC(=O)N[C@@H](C)c1ccc(N2CC(Oc3cccc(OC(C)C)n3)C2)cc1 [Example 12.9] | 0.49 µM |
| COc1ccc(OC2CN(c3ccc([C@H](C)NC(C)=O)cc3)C2)c(Cl)c1 [Example 10.29] | 0.57 µM |
| CC(=O)N[C@@H](C)c1ccc(N2CC(Oc3cc(OCc4ccccc4)ccn3)C2)cc1 [Example 8.7, (S)—N-(1-{4-[3-(4-Benzyloxy-pyridin-2-yloxy)-azetidin-1-yl]-phenyl}-ethyl)-acetamide] | 2.24 µM |
| CCOc1ccc(OC2CN(c3ccc([C@H](C)NC(=O)N(C)C(C)C)cc3)C2)cc1 [Example 4.10] | 3.1 µM |
